Source: patent publication US5976875A, “Diacylglycerol kinase isoforms epsilon and zeta and methods of use thereof” (priority 1997, dated 1999)
Like-named read-outs stand apart in the source and are kept apart here. Each block holds one molecule with its values, some of them ahead of it.

Key:
DGK.zeta. [1] = target: T1, DGK.zeta. (Homo sapiens, UniProt Q13574); test: DAG kinase assay, homogenates of DGK.zeta.-transfected COS-7 cells; format: biochemical; conditions: for nmol phosphatidic acid/mg/h (DAG substrate specificity of DGK.zeta.): each diacylglycerol used as substrate, Table I
T1 construct: The DGK.zeta. cDNA was expressed in pcDNA 1/AMP (Invitrogen) in the foward orientation; expressed in transfected cells; host or cells: COS-7
T1 sequence (Q13574 whole entry): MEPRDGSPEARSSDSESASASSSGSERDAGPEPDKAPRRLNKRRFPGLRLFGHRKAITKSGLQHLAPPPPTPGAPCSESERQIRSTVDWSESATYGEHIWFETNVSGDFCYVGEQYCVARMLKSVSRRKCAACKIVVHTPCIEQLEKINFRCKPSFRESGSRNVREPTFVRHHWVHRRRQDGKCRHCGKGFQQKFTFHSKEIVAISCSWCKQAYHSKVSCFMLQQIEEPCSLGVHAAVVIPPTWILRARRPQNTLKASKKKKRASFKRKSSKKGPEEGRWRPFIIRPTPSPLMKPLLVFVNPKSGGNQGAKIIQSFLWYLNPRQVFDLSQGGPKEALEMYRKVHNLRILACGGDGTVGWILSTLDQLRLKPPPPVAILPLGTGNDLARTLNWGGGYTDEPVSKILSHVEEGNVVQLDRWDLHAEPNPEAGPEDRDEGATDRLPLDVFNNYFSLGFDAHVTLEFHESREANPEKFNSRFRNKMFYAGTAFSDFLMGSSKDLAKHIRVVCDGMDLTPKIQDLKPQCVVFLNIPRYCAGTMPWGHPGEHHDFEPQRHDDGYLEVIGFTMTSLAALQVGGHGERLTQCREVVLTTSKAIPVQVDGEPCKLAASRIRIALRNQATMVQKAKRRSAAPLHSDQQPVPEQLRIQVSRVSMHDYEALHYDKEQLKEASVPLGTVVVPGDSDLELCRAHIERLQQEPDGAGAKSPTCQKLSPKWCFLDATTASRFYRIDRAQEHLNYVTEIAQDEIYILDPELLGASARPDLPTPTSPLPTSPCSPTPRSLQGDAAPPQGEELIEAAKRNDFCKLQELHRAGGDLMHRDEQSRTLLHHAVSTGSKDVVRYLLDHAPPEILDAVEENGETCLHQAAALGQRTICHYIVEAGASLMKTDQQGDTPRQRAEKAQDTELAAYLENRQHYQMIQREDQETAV
Protocol: (§1) COS-7 Transfection--The DGK.zeta. cDNA was expressed in pcDNA 1/AMP (Invitrogen) in the foward orientation. Each p35 dish containing COS-7 cells at 60-80% confluence was transfected with 1 μg of plasmid DNA and 5 μl of LipofectAMINE according to manufacturer specifications (Life Technologies Inc.). The cells were harvested by washing with ice-cold Hanks' balanced salt solution (Ca^2+ - and […] -free) and were scraped into resuspension buffer (20 mM Tris-HCl, pH 7.4, 0.25 M sucrose, 1 mM EDTA, 4 mM EGTA, 1 mM dithiothreitol, 1 mM pheylmethylsulfonyl fluoride, 20 μg/ml each leupeptin, pepstain, aprotinin, and soybean trypsin inhibitor) 48 h following transfection. All homogenates were frozen on dry ice and stored at -70° C. until assayed.
(§2) DAG Kinase Assay--Cell homogenates were sonicated twice with 5 watts for 5 at 4° C. The protein concentration of each cell homogenate was measured following trichloracetic acid precipitation utilizing the BCA protein assay reagent (Pierce). Each assay contained 50 mM MOPS, pH 7.2, 100 mM NaCl, 20 mM MgCl2, 1 mM EGTA, 1 mM dithiothreitol, 2 mM 1,2-dieleoyl-an-glycerol, 3.5 mM phosphatidylserine, 75 mM octyl-β-glucopyranoside, 500 μM [γ^32 ]ATP, and 0-20 μg of cell homogenate in a volume of 200 μl. For substrate specificity experiments, various diacylglycerol species were substituted for 1,2-dioleoyl-an-glycerol. The reactions were initiated by the addition of ATP (20-30 μCi/μmol), were incubated for 10 min. At 24° C., and were terminated by the addition of 200 μl of 1% perchloric acid. Then, to each tube, we added 1.0 ml of MeOH, 1.0 ml of […], 500 μl of 1% perchloric acid, and 50 μg of phosphatidic acid, vortexed them well, and centrifuged them for 10 min at 400×g. The remaining lower phase was dried under N2 and resuspended in 100 μl of 9:1 CHCl3 /MeOH. Fifty μl of each sample were counted directly by liquid acintillation spectrometry, and the remainder was applied to a 20×20 cm Silica 60A thin layer chromatography plate (Whatman). […] The region containing phosphatidic acid (as indicated by radiolabeled standards) and the remaining areas of each lane were scraped separately, and the radioactivity was estimated by liquid scintillation spectrometry. The amount of phosphatidic acid formed per reaction was calculated as [2(direct count)(PA cpm)(total lane cpm)]×[mole ATP/cpm]. R59959 was dissolved in dimethyl sulfoxide and added to relevant enzymatic reactions just prior to the addition of ATP.

DGK.zeta. [2] = test: as above; format: biochemical, human
Protocol: as §1, §2

DGKε = target: T2, DGKε (Homo sapiens, UniProt P52429); test: octyl glucoside/PS mixed-micelle assay of DGK activity, homogenates of DGKε-transfected COS-7 cells; format: biochemical; conditions: for inhibition of DGKε activity: 100 μm inhibitor, homogenates from transfected cells
T2 construct: a PCR product of the DGKε cDNA lacking the 3'-untranslated region and part of the 5'-untranslated region was amplified; expressed in transfected cells; host or cells: COS-7
T2 sequence (P52429 1-567): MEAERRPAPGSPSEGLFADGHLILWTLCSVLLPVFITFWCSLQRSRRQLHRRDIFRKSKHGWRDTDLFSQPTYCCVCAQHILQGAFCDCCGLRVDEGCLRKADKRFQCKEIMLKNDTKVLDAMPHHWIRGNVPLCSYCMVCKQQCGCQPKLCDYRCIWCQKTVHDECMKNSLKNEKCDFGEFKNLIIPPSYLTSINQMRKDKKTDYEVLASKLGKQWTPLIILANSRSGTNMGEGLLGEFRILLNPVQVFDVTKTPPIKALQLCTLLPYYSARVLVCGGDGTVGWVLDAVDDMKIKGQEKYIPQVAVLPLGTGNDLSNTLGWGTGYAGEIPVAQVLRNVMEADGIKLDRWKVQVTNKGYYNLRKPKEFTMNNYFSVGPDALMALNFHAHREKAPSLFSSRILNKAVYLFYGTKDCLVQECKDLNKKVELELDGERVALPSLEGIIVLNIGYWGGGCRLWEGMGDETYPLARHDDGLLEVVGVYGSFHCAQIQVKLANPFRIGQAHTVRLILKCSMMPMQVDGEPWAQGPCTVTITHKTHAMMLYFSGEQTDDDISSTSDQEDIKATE
Protocol: COS-7 Transfection and Assay of DGK Activity--COS-7 transfection was carried out using LipofectAMINE reagent (Life Technologies, Inc.), and all steps were followed by the protocol provided by the manufacturer. After 2.5 days, the cells were harvested and lysed by sonication (twice with 5 watts for 5 s at 4° C.) in the lysis buffer (0.1 ml/35 mm well) containing 20 mm Tris-HCL, pH 7.4, 0.25 m sucrose, 1 mm EDTA, 4 mm EGTA, 1 mm dithiothreitol, 1 mm phenylmethylsulfonyl fluoride, a 20 μg/ml concentration of each: leupeptin, pepstatin, aprotinin, and soybean trypsin inhibitor. Kai, M., Sakane, F., Imai, S., Wada, I., and Kanoh, H. (1994) J. Biol. Chem. 269, 18492-18498. The protein concentration of the cell homogenate was determined with the BCA protein assay reagent (Pierce). In two experiments, the homogenate was separated into soluble and membrane-bound fractions by centrifugation at 100,000×g for 60 min. (4° C.). The pellet was resuspended in lysis buffer, and both fractions were assayed for DGK activity.
Since the full-length cDNA of DGKε could not be expressed in COS-7 cells, a PCR product of the DGKε cDNA lacking the 3'-untranslated region and part of the 5'-untranslated region was amplified and cloned into pcDNA/Neo (Invitrogen). The forward primer (SEQ ID NO: 10):
The octyl glucoside/PS mixed-micelle assay of DGK activity was performed as described. Walsh, J. P., Suen, R., Lemaitre, R. N., and Glomset, J. A. (1994) J. Biol. Chem. 269, 21155-21164. In brief, the assay mixture contained 50 mm MOPS, pH 7.2, 100 mm NaCl, 20 mm MgCl2, 1 mm EGTA, 1 mm dithoiothreitol, 2 mm discylglycerol, 3.5 mm phosphatidylserine, 75 mm octyl-β-glucopyranoside, 500 μm [γ-^32 P] ATP, and 20 μg of cellular protein in a volume of 200 μl. The reaction was initiated by the addition of [γ-^32 P] ATP (20-30 μCi/μmol) and processed for 10 min at 24° C. […] The amount of phosphatidic acid formed per reaction was calculated by dividing the radioactivity in phosphatidic acid by the specific radioactivity of the ATP in the reaction.

[3] = system: protein kinase M (PKM), catalytic fragment of mixed rat brain PKC isozymes; test: Phosphorylation of peptides by PKM (kinetics); format: biochemical; conditions: for Km: 10 minute reaction, 30° C., read-out: Km as substrate for PKM
Protocol: Phosphorylation of peptides and proteins--Peptides were phosphorylated by the purified catalytic fragment of mixed rat brain PKC isozymes (protein kinase M; PKM). In all cases involving kinetic measurements, the peptides were phosphorylated by PKM (1:120 dilution of frozen stock solution) at 30° C. All reactions were performed in the linear range of peptide phosphorylation, in an assay mixture containing 40 mM Hepes (pH 7.4), 0.25 mM EGTA, 12.5 mM MgCl2, 75 μM y-[^32 P]ATP, and various concentrations of peptides. In the peptide experiments, the reactions were stopped after 10 minutes by the addition of 1/5 vol of 5×SDS sample buffer, boiled for 5 minutes and then subjected to electrophoresis on 20% acrylamide gels. After the gels were dried, the phosphorylated peptides were localized by autoradiography, excised from the gel, and subjected to Cerenkov scintillation counting.

Molecule: CCCCCCCC/C=C\CCCCCCCC(=O)O[C@@H](CO)COC(=O)CCCCCCCCCCCCCCC [1-Palmitoyl-2-oleoyl-sn-glycerol]
- nmol phosphatidic acid/mg/h (DAG substrate specificity of DGK.zeta.) (DGK.zeta. [1]): 805 ± 8 nmol phosphatidic acid/mg/h

Molecule: [Ca+2] [calcium]
- effect of excess calcium on DGK.zeta. activity (DGK.zeta. [1]; 0.1-2 mm calcium added at start of reaction): no increase in activity

Molecule: CCCCCCCC/C=C\CCCCCCCC(=O)OCC(O)COC(=O)CCCCCCC/C=C\CCCCCCCC [1,3-Dioleoyl-sn-glycerol]
- nmol phosphatidic acid/mg/h (DAG substrate specificity of DGK.zeta.) (DGK.zeta. [1]): 110 ± 8 nmol phosphatidic acid/mg/h

Molecule: CCCCCCCC/C=C\CCCCCCCC(=O)OC[C@H](CO)OC(=O)CCCCCCC/C=C\CCCCCCCC [1,2-Dioleoyl-sn-glycerol]
- nmol phosphatidic acid/mg/h (DAG substrate specificity of DGK.zeta.) (DGK.zeta. [1]): 1021 ± 9 nmol phosphatidic acid/mg/h

Molecule: CCCCCCCC/C=C\CCCCCCCC(=O)OC[C@H](CO)OC(=O)CCCCCCCCCCCCCCC [1-Oleoyl-2-palmitoyl-sn-glycerol]
- nmol phosphatidic acid/mg/h (DAG substrate specificity of DGK.zeta.) (DGK.zeta. [1]): 856 ± 35 nmol phosphatidic acid/mg/h

Molecule: CCCCCCCCCC(=O)OC[C@H](CO)OC(=O)CCCCCCCCC [1,2-Dicapryl-sn-glycerol]
- nmol phosphatidic acid/mg/h (DAG substrate specificity of DGK.zeta.) (DGK.zeta. [1]): 1440 ± 42 nmol phosphatidic acid/mg/h

Second part, led by results:

- nmol phosphatidic acid/mg/h (DAG substrate specificity of DGK.zeta.) (DGK.zeta. [1]): 1106 ± 34 nmol phosphatidic acid/mg/h
Molecule: CCCCC/C=C\C/C=C\C/C=C\C/C=C\CCCC(=O)O[C@@H](CO)COC(=O)CCCCCCCCCCCCCCCCC [1-Stearoyl-2-arachidonyl-sn-glycerol]

- DGK activity (DGK.zeta. [1]; 1,2-dicapryl-sn-glycerol substrate, typical experiment, FIG. 21): 7.5 nmol/mg/min
- increase in DGK activity compared to vector-transfected cells (DGK.zeta. [1]; 1,2-dioleoyl-sn-glycerol substrate, FIG. 7): 267 fold
Molecule: DGK.zeta.: human diacylglycerol kinase zeta, 928-amino acid protein (SEQ ID NO: 4)
- catalytic activity (DGK.zeta. [2]; native vs ankyrin repeat-deleted (FLAG-tagged) DGK.zeta.): 1764 nmol PA/mg/hr
- DGK.zeta. activity (DGK.zeta. [2]; native vs zinc finger deletion mutants, Table II): 243 nmol PA/mg/hr
- Relative activity (DGK.zeta. [2]; relative to native DGK.zeta. = 100, Table II): 100

- activity at 100 µM (DGK.zeta. [1]; 100 μm R59949, read-out: DGK.zeta. activity in presence of inhibitor): 94%
- DAG kinase activity of DGK.zeta.-transfected cells in presence of inhibitor (DGK.zeta. [1]; summary statement): not altered
- inhibition of DGKε activity (DGKε): ~41%
Molecule: O=c1c2ccccc2[nH]c(=S)n1CCN1CCC(=C(c2ccc(F)cc2)c2ccc(F)cc2)CC1 [R59949]

- nmol phosphatidic acid/mg/h (DAG substrate specificity of DGK.zeta.) (DGK.zeta. [1]): 801 ± 13 nmol phosphatidic acid/mg/h
Molecule: CCCCCCCC/C=C\CCCCCCCC(=O)O[C@@H](CO)COC(=O)CCCCCCCCCCCCCCCCC [1-Stearoyl-2-oleoyl-sn-glycerol]

- effect of increased phosphatidylserine concentration on DGKε activity (DGKε; additional 3.5 mm phosphatidylserine added to reaction mixture): only slightly increased
Molecule: phosphatidylserine

- Km ([3]; listed as native peptide): ~0.5 µM
- Km [3]: 0.5 µM
- Hill constant ([3]; phosphorylation by PKM): 0.7
Molecule: KASKKKKRASFKRKSSKK [DGK peptide, 18 amino acid peptide corresponding to residues 256-273 of DGK.zeta]

- inhibition of DGKε activity (DGKε): approximately 11%
Molecule: Cc1nc2sccn2c(=O)c1CCN1CCC(=C(c2ccccc2)c2ccc(F)cc2)CC1 [R59022]
